“Also recorded” adds a separate entry of the source.
What was measured:
[1] = skin diffusion experiment (Franz diffusion cells); assay type: in vitro ADME, pig; conditions: from a composition of the invention, 4 mg/cm^2, 21 hours, FIG. 3, % of applied dose
Experimental: To investigate the skin penetration and permeation of calcipotriol from compositions of the invention, a skin diffusion experiment was conducted. Full thickness skin from pig ears was used in the study. The ears were kept frozen at -18° C. before use. On the day prior to the experiment the ears were placed in a refrigerator (5±3° C.) for slow defrosting. On the day of the experiment, the hairs were removed using a veterinary hair trimmer. The skin was cleaned for subcutaneous fat using a scalpel and two pieces of skin were cut from each ear and mounted on Franz diffusion cells in a balanced order.
Static Franz-type diffusion cells with an available diffusion area of 3.14 cm^2 and receptor volumes ranging from 8.6 to 11.1 ml were used in substantially the manner described by T. J. Franz, “The finite dose technique as a valid in vitro model for the study of percutaneous absorption in man”, in Current Problems in Dermatology, 1978, J. W. H. Mall (Ed.), Karger, Basel, pp. 58-68. The specific volume was measured and registered for each cell. A magnetic bar was placed in the receptor compartment of each cell. […]
The in vitro skin permeation of each test composition was tested in 6 replicates (i.e. n=6). […] A glass spatula was used for the application, and the residual amount of the composition was determined so as to give the amount of the composition actually applied on the skin. […]

[2] = test system: IL-la; assay: release of IL-1a from calcipotriol ointment containing glycerol; conditions: 5%, 10%, 15% by weight of glycerol in a calcipotriol ointment
[3] = test system: gene encoding cathelicidin; assay: induction of the gene encoding cathelicidin in reconstructed human epidermis (qPCR); assay type: cell-based; conditions: glycerol 5% vs 10% or 15% by weight in calcipotriol composition
Excerpt: In psoriasis, the level of cathelicidin is increased in lesional skin of psoriasis patients. […] This finding has been utilized to develop an assay in which the uptake and biological activity of calcipotriol in human keratinocytes from the tested compositions has been determined by measuring the level of induction of the gene encoding cathelicidin.
In the assay, composition 1A prepared as described in Example 1 above was applied topically in triplicate on reconstructed human epidermis consisting of normal human keratinocytes cultured for 12 days on 0.5 cm^2 polycarbonate filters (available from SkinEthic® Laboratories, Nice, France) in an amount of […]. The tissue was treated for two days followed by separation of the epidermis from the polycarbonate filter and snap-frozen in liquid nitrogen. RNA was extracted from the cells and cDNA synthesized by conventional procedures. Quantitative real-time PCR (qPCR) was then performed using the following assays from Applied Biosystems: CAMP Hs0018038_ml and GAPDH Hs99999905_ml. The expression levels of cathelicidin were normalized to GAPDH and a relative quantification was made by comparison with Daivonex® ointment.

[4] = one study, Hannuksela et al. 1975; cited from earlier work

Compound: C=C1/C(=C\C=C2/CCC[C@]3(C)[C@@H]([C@H](C)/C=C/[C@@H](O)C4CC4)CC[C@@H]23)C[C@@H](O)C[C@@H]1O [calcipotriol, Calcipotriol]
- calcipotriol penetrated into viable layers of the skin (dermis and epidermis) [1]: a significant amount
- calcipotriol permeated through the skin into the receptor fluid [1]: Very little; also recorded: only a minor amount

Compound: OCC(O)CO [glycerol]
- release of IL-la [2]: reduce the release of IL-la in a dose-dependent manner
- expression of cathelicidin [3]: increased with a low amount of glycerol

Compound: CC(O)CO (centres unmarked) [propylene glycol]
- number of irritant reactions [4]: 12.5%
